Legend:
[1] = biological target: T1, Protein kinase C alpha type (Homo sapiens, UniProt P17252); assay: Inhibition of [3H]phorbol-12,13-dibutyrate binding to PK-C
[2] = biological target: T1, Protein kinase C alpha type; assay: Inhibition of [20-3H]phorbol-12,13-dibutyrate(PDBU) binding to purified PK-C alpha

Compound	Ki [1]	Ki [2]
CCCCCCCCCCCCCC(=O)O[C@@H]1CC(=O)O[C@H]1CO	2500 nM	1500 nM
CCCCCCCCCCCCCC(=O)O[C@@H]1CC(=O)O[C@H]1CCO		880 nM
